In US20080286337A1, “Method of treating a disease in an eye using a scleral lens” (Boston Foundation for Sight, priority 2007, published 2008):
Where two headings read alike, the source gives them in different places.

Columns and labels:
[1] = test system: corneal neovascularization; test: Topical AVASTIN in the scleral lens drug delivery system to treat corneal neovascularization; type: in vivo
From the text: This study using AVASTIN® off-label, topically, to treat corneal neovascularization was repeated using the scleral lens drug delivery system. […] This therapeutic effect was achieved without BAK. Instead, the expanded pre-corneal tear film of the scleral lens drug delivery system provided adequate bioavailability of the drug without exposing the cornea to BAK.

[2] = test system: corneal neovascularization; conditions: solution of 1% AVASTIN and 0.01% BAK, one drop, four times per day for at least thirty days; no scleral lens; cited from earlier work

With bevacizumab [AVASTIN®] the “therapeutic effect on corneal neovascularization” value ([1]; one drop of 1% AVASTIN added to expanded pre-corneal tear film of artificial tears in a scleral lens twice per day, without BAK) was “achieved a therapeutic effect by thirty days”, the “continued benefit after initial therapeutic effect” value ([1]; same regimen, the sixty days following the first thirty days) was “continued benefit over the subsequent sixty days” and the “regression of corneal neovascularization (clinical photos, FIG. 5)” value ([1]; scleral lens drug delivery system) was “regression of corneal neovascularization”. The “therapeutic effect on corneal neovascularization” value [2] was “Therapeutic effect was reported”.
